The values below come from US9938281B2 (Merck Sharp & Dohme Corp., priority 2012, dated 2018).

The target in experiment [1] is T1, PI3K-delta (Homo sapiens, UniProt O00329).
T1 construct: purchased Upstate; Millipore 14-604
Kind of experiment: HTRF PI3K biochemical assay, delta isoform. To be noted: form screened (neutral or TFA salt) given, read-out: PI3Kdelta IC50.

In experiment [2] the target is T2, PI3K-alpha (Homo sapiens, UniProt P42336).
T2 construct: purchased Upstate; Millipore 14-602
In words: HTRF PI3K biochemical assay, alpha isoform. The note with it: ratio PI3K-alpha IC50 value / PI3K-delta IC50 value.

T1 sequence (O00329 whole entry): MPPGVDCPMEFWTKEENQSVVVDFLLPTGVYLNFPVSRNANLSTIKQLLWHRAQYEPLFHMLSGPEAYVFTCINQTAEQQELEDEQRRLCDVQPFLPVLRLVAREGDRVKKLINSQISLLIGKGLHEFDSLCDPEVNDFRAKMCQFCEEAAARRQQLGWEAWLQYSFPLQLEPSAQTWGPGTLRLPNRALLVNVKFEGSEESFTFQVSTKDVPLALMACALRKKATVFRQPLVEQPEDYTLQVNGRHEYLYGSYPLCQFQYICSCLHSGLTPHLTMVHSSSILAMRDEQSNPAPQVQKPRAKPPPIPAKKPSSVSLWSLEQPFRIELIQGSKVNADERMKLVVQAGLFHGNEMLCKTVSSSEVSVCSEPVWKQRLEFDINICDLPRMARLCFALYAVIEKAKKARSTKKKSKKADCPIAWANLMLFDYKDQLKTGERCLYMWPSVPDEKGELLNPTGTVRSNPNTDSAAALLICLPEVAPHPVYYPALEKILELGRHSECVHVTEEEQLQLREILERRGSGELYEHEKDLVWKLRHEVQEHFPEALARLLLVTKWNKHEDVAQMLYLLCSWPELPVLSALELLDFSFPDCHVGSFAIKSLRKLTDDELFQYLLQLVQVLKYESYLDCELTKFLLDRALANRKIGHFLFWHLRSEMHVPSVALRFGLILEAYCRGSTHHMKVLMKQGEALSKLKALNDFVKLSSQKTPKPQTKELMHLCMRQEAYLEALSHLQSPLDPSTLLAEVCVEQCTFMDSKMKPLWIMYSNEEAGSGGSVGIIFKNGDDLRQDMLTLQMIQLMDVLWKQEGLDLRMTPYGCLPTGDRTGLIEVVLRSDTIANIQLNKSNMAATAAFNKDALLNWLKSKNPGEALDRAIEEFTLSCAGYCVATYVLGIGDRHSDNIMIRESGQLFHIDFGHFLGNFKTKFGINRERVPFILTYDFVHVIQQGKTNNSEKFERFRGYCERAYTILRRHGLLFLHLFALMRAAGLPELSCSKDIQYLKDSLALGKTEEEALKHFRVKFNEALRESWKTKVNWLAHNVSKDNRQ
T1 sequence (P27986 whole entry partner): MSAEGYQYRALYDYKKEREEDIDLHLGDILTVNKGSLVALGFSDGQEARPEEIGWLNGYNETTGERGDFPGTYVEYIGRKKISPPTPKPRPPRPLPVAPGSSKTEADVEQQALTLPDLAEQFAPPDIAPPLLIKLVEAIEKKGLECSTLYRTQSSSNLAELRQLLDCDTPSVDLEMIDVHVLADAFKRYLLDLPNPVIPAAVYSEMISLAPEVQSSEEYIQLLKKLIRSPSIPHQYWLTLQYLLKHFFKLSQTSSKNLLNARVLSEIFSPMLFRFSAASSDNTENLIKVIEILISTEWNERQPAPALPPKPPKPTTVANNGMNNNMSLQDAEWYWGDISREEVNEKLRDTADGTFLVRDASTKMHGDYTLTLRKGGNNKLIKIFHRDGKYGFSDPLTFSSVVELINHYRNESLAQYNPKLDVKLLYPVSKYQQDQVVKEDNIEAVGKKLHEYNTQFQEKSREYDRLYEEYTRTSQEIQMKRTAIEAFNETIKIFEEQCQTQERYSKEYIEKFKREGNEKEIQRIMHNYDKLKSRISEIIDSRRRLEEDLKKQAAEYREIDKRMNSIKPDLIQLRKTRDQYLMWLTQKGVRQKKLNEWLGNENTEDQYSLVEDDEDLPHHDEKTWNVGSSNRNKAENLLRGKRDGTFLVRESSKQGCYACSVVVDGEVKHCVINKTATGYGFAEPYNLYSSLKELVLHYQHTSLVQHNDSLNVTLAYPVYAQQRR
T2 sequence (P42336 whole entry): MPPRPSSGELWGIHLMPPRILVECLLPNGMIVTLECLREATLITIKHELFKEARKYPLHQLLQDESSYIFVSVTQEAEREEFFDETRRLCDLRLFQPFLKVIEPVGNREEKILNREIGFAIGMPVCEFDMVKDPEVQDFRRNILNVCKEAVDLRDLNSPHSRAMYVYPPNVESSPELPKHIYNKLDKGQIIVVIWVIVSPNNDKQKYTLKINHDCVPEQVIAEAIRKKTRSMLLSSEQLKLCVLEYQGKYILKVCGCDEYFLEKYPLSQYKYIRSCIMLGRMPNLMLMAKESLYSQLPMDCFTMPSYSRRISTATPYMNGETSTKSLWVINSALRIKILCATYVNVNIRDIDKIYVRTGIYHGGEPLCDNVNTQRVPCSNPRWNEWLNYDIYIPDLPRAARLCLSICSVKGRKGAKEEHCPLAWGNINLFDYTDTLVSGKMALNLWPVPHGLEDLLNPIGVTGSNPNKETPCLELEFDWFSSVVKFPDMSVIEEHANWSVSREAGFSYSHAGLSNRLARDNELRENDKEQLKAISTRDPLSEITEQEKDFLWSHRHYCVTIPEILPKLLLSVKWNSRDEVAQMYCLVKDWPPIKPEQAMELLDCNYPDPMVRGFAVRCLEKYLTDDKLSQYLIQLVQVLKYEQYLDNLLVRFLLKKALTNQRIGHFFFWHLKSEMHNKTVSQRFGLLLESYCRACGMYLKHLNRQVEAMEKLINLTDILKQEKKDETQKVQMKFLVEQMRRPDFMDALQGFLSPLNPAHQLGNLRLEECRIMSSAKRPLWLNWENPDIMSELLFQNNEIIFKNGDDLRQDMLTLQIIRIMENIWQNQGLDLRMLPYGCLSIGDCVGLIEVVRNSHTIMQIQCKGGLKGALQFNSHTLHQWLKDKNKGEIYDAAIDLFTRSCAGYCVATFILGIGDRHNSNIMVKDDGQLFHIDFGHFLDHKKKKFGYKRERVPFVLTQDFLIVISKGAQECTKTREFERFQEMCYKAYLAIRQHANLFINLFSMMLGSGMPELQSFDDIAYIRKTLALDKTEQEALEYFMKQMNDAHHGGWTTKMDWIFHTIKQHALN
T2 sequence (P27986 whole entry partner): as the sequence (P27986 whole entry partner) above

Turning to `CCn1c(C(=O)Nc2ccccn2)nc2c(N[C@H]3CCN(C(=O)C4CC4)C3)ncnc21` [Compound 6-20, 6-{[(3S)-1-(cyclopropylcarbonyl)pyrrolidin-3-yl]amino}-9-ethyl-N-pyridin-2-yl-9H-purine-8-carboxamide], the IC50 in experiment [1] was found to be 23 nM. Moreover, in experiment [2], the “Selectivity versus PI3Kalpha” value is listed as above 10. As to `COc1ncc(-c2nc3c(N[C@H]4CCN(C(=O)OC(C)(C)C)C4)ncnc3n2C)cc1C` [Compound 1-8, (S)-tert-butyl 3-((8-(6-methoxy-5-methylpyridin-3-yl)-9-methyl-9H-purin-6-yl)amino)pyrrolidine-1-carboxylate], in experiment [1], the IC50 is 1.7 nM. Besides, in experiment [2], the “Selectivity versus PI3Kalpha” value is on record as above 10. On the same counts, the results for `CCn1c(-c2ccc(OC)nc2)nc2c(N[C@H]3CCN(C(=O)C4CC4)C3)ncnc21` [Compound 2-50, N-[(3S)-1-(cyclopropylcarbonyl)pyrrolidin-3-yl]-9-ethyl-8-(6-methoxypyridin-3-yl)-9H-purin-6-amine] are below 1 nM and above 10. On the same counts, the results for `CCn1c(-c2cnc(C)nc2)nc2c(N[C@H]3CCN(C(=O)[C@H]4CC[C@@H](O)CC4)C3)ncnc21` [Compound 2-98, cis-4-{[(3S)-3-{[9-ethyl-8-(2-methylpyrimidin-5-yl)-9H-purin-6-yl]amino}pyrrolidin-1-yl]carbonyl}cyclohexanol] are 2.8 nM and above 10. The matching figures for `CCn1c(-c2cnc(C)nc2)nc2c(N[C@H]3C[C@@H](C(=O)NC)N(C(=O)C4CC4)C3)ncnc21` [Compound 15-9, (4S)-1-(cyclopropylcarbonyl)-4-{[9-ethyl-8-(2-methylpyrimidin-5-yl)-9H-purin-6-yl]amino}-N-methyl-L-prolinamide]: 46 nM and above 10. For the compound `CCn1c(-c2cnc(C)nc2)nc2c(N[C@H]3CCN(C(=O)[C@H]4C[C@H](OC)C4)C3)ncnc21` [Compound 2-38, 9-ethyl-N-{(3S)-1-[(trans-3-methoxycyclobutyl)carbonyl]pyrrolidin-3-yl}-8-(2-methylpyrimidin-5-yl)-9H-purin-6-amine], the IC50 in experiment [1] was found to be 1.7 nM. For the same compound, the “Selectivity versus PI3Kalpha” value in experiment [2] was above 10.

For `CCn1c(-c2cnc(OC)c(C)c2)nc2c(N[C@H]3CCN(C(=O)C4CCOCC4)C3)ncnc21` [Compound 3A-4, 9-ethyl-8-(6-methoxy-5-methylpyridin-3-yl)-N-[(3S)-1-(tetrahydro-2H-pyran-4-ylcarbonyl)pyrrolidin-3-yl]-9H-purin-6-amine], the IC50 in experiment [1] was below 1 nM. In addition, the “Selectivity versus PI3Kalpha” value in experiment [2] is above 10. In the case of `CCn1c(-c2cnc(OC)c(F)c2)nc2c(N[C@H]3CCN(C(=O)c4cocn4)C3)ncnc21` [Compound 3A-1, 9-ethyl-8-(5-fluoro-6-methoxypyridin-3-yl)-N-[(3S)-1-(1,3-oxazol-4-ylcarbonyl)pyrrolidin-3-yl]-9H-purin-6-amine], the IC50 in experiment [1] is 1 nM. Besides, the “Selectivity versus PI3Kalpha” value in experiment [2] was above 10.

Regarding `CCn1c(-c2cnc(C)nc2)nc2c(N[C@H]3CCN(C(=O)C4CCCO4)C3)ncnc21` (single isomer, unassigned) [Compound 2-33, 9-ethyl-8-(2-methylpyrimidin-5-yl)-N-[(3S)-1-((R or S)-tetrahydrofuran-2-ylcarbonyl)pyrrolidin-3-yl]-9H-purin-6-amine], the “Selectivity versus PI3Kalpha” value in experiment [2] was above 10. Same read-out and setting: under `CCn1c(-c2ccc(C(F)(F)F)nc2)nc2c(N[C@H]3CCN(C(=O)C4CCOC4)C3)ncnc21` (single isomer, unassigned) [Compound 2-102, 9-ethyl-N-{(3S)-1-[(3S or 3R)-tetrahydrofuran-3-ylcarbonyl]pyrrolidin-3-yl}-8-[6-(trifluoromethyl)pyridin-3-yl]-9H-purin-6-amine] stands above 10. On to `CCn1ncc(-c2nc3c(N[C@@H]4CCN(C(=O)c5nc(C)oc5C)C4)ncnc3n2C)c1C` [Compound 2-2, N-{(3R)-1-[(2,5-dimethyl-1,3-oxazol-4-yl)carbonyl]pyrrolidin-3-yl}-8-(1-ethyl-5-methyl-1H-pyrazol-4-yl)-9-methyl-9H-purin-6-amine], for which the IC50 in experiment [1] worked out at 52 nM.
